Structures can show the parent of a compound that is named as a salt.
Assay: competition binding assay for cardiolipin with fluorescent probe I and CL-DOPC liposomes (25:75 mol %)
Conditions: for EC50: 20 mM HEPES buffer, 2.5 μM CL, 5 μM I, means ± S.D. from 3 independent experiments; for relative binding affinity for CL within the studied set (in words): comparison of EC50 values; for EC50 range (in words): pH 7.4 and 6.8; for effect of pH change on interaction with CL: pH 7.4 versus 6.8
Procedure: Lipid vesicles may be composed of CL and a helper phospholipid (preferentially a phosphatidylcholine) or may have a more complex composition with several phospholipids, provided that the formulation is stable in the used medium. […] [18]
Final concentration of the fluorescent probe I may range from 0.2 μM to 25 μM. Optimal incubation temperature is 37° C. because it represents physiological temperature and allows shortening of the incubation time.
A fluorimeter is required that is capable of scanning emission intensity at a desired wavelength, as well as a plate shaker-thermostat. Assay is carried out in 96-well microplates for fluorescence-based assays. […]
Also place a triplicate of CL containing lipid vesicles without a ligand (vehicle); • 3. Place the 96-well microplate in a plate shaker-thermostat for 10 min (500 RPM, 37° C.). • 4. Add appropriate amount of I stock solution (I final concentration 5 μM) to the wells, including wells containing vehicle, and mix gently with a micro pipette by sucking the solution gently up and down (approximately 5 times); • 5. Incubate for 15 min in a plate shaker-thermostat (500 RPM, 37° C.); • 6. Measure fluorescence intensity at an excitation and emission wavelength of 497 and 529 nm, respectively; • 7. […] Plot the normalized fluorescence intensity against the concentration of the ligand on a logarithmic scale; • 9. Fit the titration curve with a suitable fitting model to calculate EC50 values.

| Compound | EC50 (pH = 7.4) | EC50 (pH = 6.8) | further results |
| --- | --- | --- | --- |
| (2R,3R,4S,5S,6S)-5-amino (((2R,3S,4R,4aR,6S,7R,8aS)-7-amino-6-(((1R,2R,3S,4R,6S)-4,6-diamino-2,3-dihydroxycyclohexyl)oxy)-4-hydroxy-3-(methylamino)octahydropyrano[3,2-b]pyran-2-yl)oxy)-6-(hydroxymethyl)tetrahydro-2H-pyran-3,4-diol sulfate [Example 9] | 3.34 ± 0.95 µM |  |  |
| COc1cccc2c1C(=O)c1c(O)c3c(c(O)c1C2=O)C[C@@](O)(C(C)=O)C[C@@H]3O[C@H]1C[C@H](N)[C@H](O)[C@H](C)O1 [Example 6, (8S,10S)-8-acetyl-10-(((2R,4S,5S,6S)-4-amino-5-hydroxy-6-methyltetrahydro-2H-pyran-2-yl)oxy)-6,8,11-trihydroxy-1-methoxy-7,8,9,10-tetrahydrotetracene-5,12-dione hydrochloride] | 4.35 ± 1.25 µM |  |  |
| NC[C@H]1O[C@H](O[C@H]2[C@H](O)[C@@H](O[C@H]3O[C@H](CO)[C@@H](O)[C@H](N)[C@H]3O)[C@H](N)C[C@@H]2N)[C@H](N)C[C@@H]1O [Example 12, (2S,3R,4S,5S,6R)-4-amino-2-{[(1S,2S,3R,4S,6R)-4,6-diamino-3-{[(2R,3R,5S,6R)-3-amino-6-(aminomethyl)-5-hydroxyoxan-2-yl]oxy}-2-hydroxycyclohexyl]oxy}-6-(hydroxymethyl)oxane-3,5-diol] | 4.37 ± 0.32 µM |  |  |
| [Cl-].[Cl-].[Mg+2] [Example 4, Magnesium chloride] | 1930 ± 20.5 µM |  |  |
| [H]/N=C(/N)N[C@H]1[C@H](O)[C@@H](O)[C@H](O[C@@H]2O[C@@H](C)[C@](O)(C=O)[C@H]2O[C@@H]2O[C@@H](CO)[C@H](O)[C@@H](O)[C@@H]2NC)[C@@H](N/C(N)=N\[H])[C@@H]1O [Example 10, 2-[(1R,2R,3S,4R,5R,6S)-3-(diaminomethyldeneamino)-4-[(2R,3R,4R,5S)-3-[(2S,3S,4S,5R,6S)-4,5-dihydroxy-6-(hydroxymethyl)-3-(methylamino)oxan-2-yl]oxy-4-formyl-4-hydroxy-5-methyloxolan-2-yl]oxy-2,5,6-trihydroxycyclohexyl]guanidine] | 9.82 ± 1.76 µM |  | relative binding affinity for CL within the studied set (in words) (20 mM HEPES, listed as streptomycin): lowest affinity for CL |
| [Ca+2].[Cl-].[Cl-] [Example 3, Calcium chloride] | 1334 ± 10.1 µM | 1290 ± 130 µM | lower EC50 than Mg^2+ (pH 7.4, 20 mM HEPES, FIG. 1B): ≈ 30% |
| COc1cccc2c1C(=O)c1c(O)c3c(c(O)c1C2=O)C[C@@](O)(C(=O)CO)C[C@@H]3O[C@H]1C[C@H](N)[C@@H](O)[C@H](C)O1 [Example 5, (8S,10S)-10-(((2R,4S,5R,6S)-4-amino-5-hydroxy-6-methyltetrahydro-2H-pyran-2-yl)oxy)-6,8,11-trihydroxy-8-(2-hydroxyacetyl)-1-methoxy-7,8,9,10-tetrahydrotetracene-5,12-dione hydrochloride] | 6.94 ± 0.9 µM | 5.86 ± 0.25 µM |  |
| Cytochrome c [Example 1] | 0.32 ± 0.06 µM | 0.28 ± 0.02 µM | relative binding affinity for CL within the studied set (in words) (20 mM HEPES): the highest binding affinity for CL |
| Cl.N [Example 2, Ammonium chloride] | 31853 ± 2.3 µM |  | fold lower affinity for CL than Ca^2+ ions (pH 7.4, 20 mM HEPES, FIG. 1B): 23 fold |
| CCCCCCCCCCCC[N+](C)(C)C.[Cl-] [Example 14, Dodecyltrimethylammonium chloride] | 30.7 ± 2.75 µM | 74.4 ± 8.47 µM | EC50 range (in words) (20 mM HEPES): micromolar range; relative binding affinity for CL within the studied set (in words) (20 mM HEPES): lower affinities than studied aminoglycosides or anthracyclines; effect of pH change on interaction with CL: affected by changes of pH |
| CCCCCCCCC[P+](c1ccccc1)(c1ccccc1)c1ccccc1.[Br-] [Example 13, Nonyltriphenylphosphonium bromide] | 19.8 ± 0.75 µM | 36.6 ± 2.93 µM | EC50 range (in words) (20 mM HEPES): micromolar range; relative binding affinity for CL within the studied set (in words) (20 mM HEPES): lower affinities than studied aminoglycosides or anthracyclines; affinity for CL higher than that of dodecyltrimethylammonium chloride (pH 7.4, 20 mM HEPES, FIG. 2A): ≈ 30%; effect of pH change on interaction with CL: affected by changes of pH |

From patent US12625142B2, “Assay for measuring binding affinity for cardiolipin of biologically active compounds” (Latvian Institute of Organic Synthesis, priority 2020, dated 2026)
